Laboratory results from US20240150377A1, “MODULATORS OF CYSTIC FIBROSIS TRANSMEMBRANE CONDUCTANCE REGULATOR” (VERTEX PHARMACEUTICALS INCORPORATED, priority 2020, published 2024).
Read-outs that look alike come from different tables or passages of the source.

Biological target: CFTR (Homo sapiens, UniProt P13569)
Assay: Membrane potential dye, Enteroid Assay B
Type: cell-based
Conditions: for EC50: read-out: Ent. B EC50; for Ent. B Max Activity: chloride transport as % of triple combination control (Enteroid Assay B)
Method: Base medium (ADF+++) consisted of Advanced DMEM/Ham's F12, 2 mM Glutamax, 10 mM HEPES, […] penicillin/streptomycin.
Intestinal enteroid maintenance medium (IEMM) consisted of ADF+++, 1× B27 supplement, 1× N2 supplement, 1.25 mM N-acetyl cysteine, 10 mM Nicotinamide, 50 ng/mL hEGF, 10 nM Gastrin, 1 μg/mL hR-spondin-1, 100 ng/mL hNoggin, TGF-b type 1 inhibitor A-83-01, 100 μg/mL Primocin, 10 μM P38 MAPK inhibitor SB202190.
Bath 1 Buffer consisted of 1 mM MgCl2, 160 mM NaCl, 4.5 mM KCl, 10 mM HEPES, 10 mM Glucose, 2 mM CaCl2).
Chloride Free Buffer consisted of 1 mM Magnesium Gluconate, 2 mM Calcium Gluconate, 4.5 mM Potassium Gluconate, 160 mM Sodium Gluconate, 10 mM HEPES, 10 mM Glucose.
BathI Dye Solution consisted of Bath 1 Buffer, 0.04% Pluronic F127, 20 μM Methyl Oxonol, 30 μM CaCCinh-A01, 30 μM Chicago Sky Blue.
Chloride Free Dye Solution consisted of Chloride Free Buffer, 0.04% Pluronic F127, 20 μM Methyl Oxonol, 30 μM CaCCinh-A01, 30 μM Chicago Sky Blue.
Chloride Free Dye Stimulation Solution consisted of Chloride Free Dye Solution, 10 μM forskolin, 100 μM IBMX, and 300 nM Compound III.
Human intestinal epithelial enteroid cells were obtained from the Hubrecht Institute for Developmental Biology and Stem Cell Research, Utrecht, The Netherlands and expanded in T-Flasks as previously described (Dekkers J F, Wiegerinck C L, de Jonge H R, Bronsveld I, Janssens H M, de Winter-de Groot K M, Brandsma A M, de Jong N W M, Bijvelds M J C, Scholte B J, Nieuwenhuis E E S, van den Brink S, Clevers H, van der Ent C K, Middendorp S and M Beekman J M. A functional CFTR assay using primary cystic fibrosis intestinal organoids. Nat Med. 2013 July;19(7):939-45.).
3. Enteroid Cell Harvesting and Seeding
Cells were recovered in cell recovery solution, collected by centrifugation at 650 rpm for 5 min at 4° C., resuspended in TrypLE and incubated for 5 min at 37° C. Cells were then collected by centrifugation at 650 rpm for 5 min at 4° C. and resuspended in IEMM containing 10 μM ROCK inhibitor (RI). The cell suspension was passed through a 40 μm cell strainer and resuspended at 1×10^6 cells/mL in IEMM containing 10 μM RI. Cells were seeded at 5000 cells/well into multi-well plates and incubated for overnight at 37° C., 95% humidity and 5% CO2 prior to assay.
5. Membrane Potential Dye, Enteroid Assay B
Enteroid cells were incubated with test compound in IEMM for 18-24 hours at 37° C., 95% humidity and 5% CO2. […] Briefly, cells were washed 5 times in Bath 1 Buffer. Bath 1 Dye Solution was added and the cells were incubated for 25 min at room temperature. Following dye incubation, cells were washed 3 times in Chloride Free Dye Solution. Chloride transport was initiated by addition of Chloride Free Dye Stimulation Solution and the fluorescence signal was read for 15 min. […] Chloride transport was then expressed as a percentage of the chloride transport following treatment with 1 μM (14S)-8-[3-(2-{Dispiro[2.0.2.1]heptan-7-yl}ethoxy)-1H-pyrazol-1-yl]-12,12-dimethyl-2λ^6-thia-3,9,11,18,23-pentaazatetracyclo[17.3.1.111,14.05,10]tetracosa-1(22),5,7,9,19(23),20-hexaene-2,2,4-trione, 3 μM (R)-1-(2,2-difluorobenzo[d][1,3]dioxol-5-yl)-N-(1-(2,3-dihydroxypropyl)-6-fluoro-2-(1-hydroxy-2-methylpropan-2-yl)-1H-indol-5-yl)cyclopropanecarboxamide and 300 nM acute N-[2,4-bis(1,1-dimethylethyl)-5-hydroxyphenyl]-1,4-dihydro-4-oxoquinoline-3-carboxamide triple combination control (% Activity).

[1] = Table 8, human enteroid cells, 18-24 hours, acute 10 μM forskolin and 300 nM ivacaftor
[2] = Table 7, human enteroid cells, 18-24 hours, acute 10 μM forskolin and 300 nM ivacaftor

Chain of CFTR (P13569 with tags, fused parts or gaps DEL508-508): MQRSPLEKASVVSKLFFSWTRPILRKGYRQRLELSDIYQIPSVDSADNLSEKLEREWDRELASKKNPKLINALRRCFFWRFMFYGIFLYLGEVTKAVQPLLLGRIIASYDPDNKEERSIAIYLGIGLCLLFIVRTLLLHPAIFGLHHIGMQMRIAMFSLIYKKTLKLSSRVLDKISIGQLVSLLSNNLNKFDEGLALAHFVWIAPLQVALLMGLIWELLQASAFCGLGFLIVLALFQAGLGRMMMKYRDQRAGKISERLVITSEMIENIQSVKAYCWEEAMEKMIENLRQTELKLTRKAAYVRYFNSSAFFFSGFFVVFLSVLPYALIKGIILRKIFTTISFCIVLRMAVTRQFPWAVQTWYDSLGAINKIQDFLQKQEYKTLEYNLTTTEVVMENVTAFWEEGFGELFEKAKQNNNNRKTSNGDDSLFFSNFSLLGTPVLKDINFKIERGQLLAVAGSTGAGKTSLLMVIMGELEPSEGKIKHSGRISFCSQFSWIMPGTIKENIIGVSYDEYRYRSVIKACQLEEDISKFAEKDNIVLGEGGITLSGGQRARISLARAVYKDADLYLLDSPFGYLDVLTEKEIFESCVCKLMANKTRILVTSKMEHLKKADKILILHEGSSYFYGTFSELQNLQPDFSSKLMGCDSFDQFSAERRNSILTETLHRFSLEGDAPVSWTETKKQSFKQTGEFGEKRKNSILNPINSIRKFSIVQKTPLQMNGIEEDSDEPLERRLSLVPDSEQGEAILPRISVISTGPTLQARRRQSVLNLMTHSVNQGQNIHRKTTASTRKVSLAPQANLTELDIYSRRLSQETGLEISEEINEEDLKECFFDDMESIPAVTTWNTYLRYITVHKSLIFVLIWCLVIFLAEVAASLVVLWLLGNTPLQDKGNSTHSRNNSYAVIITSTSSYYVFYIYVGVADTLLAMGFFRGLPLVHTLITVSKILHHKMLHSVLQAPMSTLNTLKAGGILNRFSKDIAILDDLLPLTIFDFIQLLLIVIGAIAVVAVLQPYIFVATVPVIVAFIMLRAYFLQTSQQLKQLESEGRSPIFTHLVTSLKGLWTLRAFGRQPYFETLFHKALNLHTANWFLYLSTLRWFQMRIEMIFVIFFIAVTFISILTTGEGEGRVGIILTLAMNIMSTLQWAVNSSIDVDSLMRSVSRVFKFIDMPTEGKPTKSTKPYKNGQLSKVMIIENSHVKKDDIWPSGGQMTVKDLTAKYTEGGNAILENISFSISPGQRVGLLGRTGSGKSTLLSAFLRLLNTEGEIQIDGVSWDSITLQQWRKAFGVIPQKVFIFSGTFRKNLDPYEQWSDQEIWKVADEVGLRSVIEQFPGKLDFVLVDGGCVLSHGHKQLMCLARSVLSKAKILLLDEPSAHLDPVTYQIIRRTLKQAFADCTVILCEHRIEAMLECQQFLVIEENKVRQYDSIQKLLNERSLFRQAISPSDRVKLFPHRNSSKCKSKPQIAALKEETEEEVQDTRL

Row | SMILES | Ent. B Max Activity (Table 8) | EC50 [1] [µM] | also measured
1 | Cc1cccc(C)c1-c1cc2nc(n1)NS(=O)(=O)c1cccc(c1)C(=O)N(CCC1(C(F)(F)F)CC1)[C@@H]1CN(C3CC4(CCCCC4)C3)C[C@H]1O2 [Compound 1190, (3R,7R)-19-(2,6-Dimethylphenyl)-5-{spiro[3.5]nonan-2-yl}-8-{2-[1-(trifluoromethyl)cyclopropyl]ethyl}-2-oxa-15λ^6-thia-5,8,16,18,21-pentaazatetracyclo[15.3.1.110,14.03,7]docosa-1(20),10(22),11,13,17(21),18-hexaene-9,15,15-trione] | – | – | Ent. B Max Activity (%) (Table 9): ++ (++ is 30-60%); EC50 (Table 9): < 1 µM
2 | Cc1cccc(C)c1-c1cc2nc(n1)NS(=O)(=O)c1cccc(c1)C(=O)N(Cc1ncccc1N1CCOCC1)[C@H](CC(C)(C)C)CO2 [Compound 386] | – | – | Ent. B Max Activity (%) (Table 9): +++ (+++ is >600%); EC50 (Table 9): < 1 µM
3 | Cc1cccc(C)c1-c1cc2nc(n1)NS(=O)(=O)c1cccc(c1)C(=O)N(Cc1ccc(O)nn1)[C@H](CC(C)(C)C)CO2 [Compound 1097] | ++ (++ is 30-60%) | < 1 | –
4 | Cc1cccc(C)c1-c1cc2nc(n1)NS(=O)(=O)c1cccc(n1)C(=O)N(CCCCC(C)(C)O)[C@H](CC(C)(C)C)CO2 [Compound 76, (11R)-6-(2,6-Dimethylphenyl)-11-(2,2-dimethylpropyl)-12-(5-hydroxy-5-methylhexyl)-9-oxa-2λ^6-thia-3,5,12,18,19-pentaazatricyclo[12.3.1.14,8]nonadeca-1(18),4(19),5,7,14,16-hexaene-2,2,13-trione] | +++ (+++ is >60%) | < 1 | –
5 | COC(=O)Nc1ccc(CN2C(=O)c3cccc(c3)S(=O)(=O)Nc3nc(cc(-c4c(C)cccc4C)n3)OC[C@H]2CC(C)(C)C)cn1 [Compound 402] | +++ (+++ is >60%) | < 1 | –
6 | Cc1cccc(C)c1-c1cc2nc(n1)NS(=O)(=O)c1cccc(c1)C(=O)N(Cc1ccn3nccc3c1)[C@H](CC(C)(C)C)CO2 [Compound 791] | – | – | Ent. B Max Activity (%) (Table 9): +++ (+++ is >600%); EC50 (Table 9): < 1 µM
7 | COC(=O)N(C)CCN1C(=O)c2cccc(c2)S(=O)(=O)Nc2nc(cc(-c3c(C)cccc3C)n2)OC[C@H]1CC(C)C [Compound 410] | – | – | Ent. B Max Activity (Table 7): +++ (+++ is >60%); EC50 [2]: < 1 µM
8 | Cc1cccc(C)c1-c1cc2nc(n1)NS(=O)(=O)c1cccc(c1)C(=O)N(Cc1ccc(C(C)(C)O)cc1)[C@H](CC(C)(C)C)CO2 [Compound 1094] | +++ (+++ is >60%) | < 1 | –
9 | Cc1cccc(C)c1-c1cc2nc(n1)NS(=O)(=O)c1cccc(n1)C(=O)N(Cc1cccnn1)[C@H](CC(C)(C)C)CO2 [Compound 1090] | +++ (+++ is >60%) | < 1 | –
10 | Cc1cccc(C)c1-c1cc2nc(n1)NS(=O)(=O)c1cccc(c1)C(=O)N(Cc1ccnc(NC(=O)OC(C)C)c1)[C@H](CC(C)(C)C)CO2 [Compound 1088] | +++ (+++ is >60%) | < 1 | –
11 | Cc1cccc(C)c1-c1cc2nc(n1)NS(=O)(=O)c1cccc(c1)C(=O)N(Cc1ccc(C(=O)N(C)C)cn1)[C@H](CC(C)(C)C)CO2 [Compound 1110] | +++ (+++ is >60%) | < 1 | –
12 | Cc1cccc(C)c1-c1cc2nc(n1)NS(=O)(=O)c1cccc(c1)C(=O)N(Cc1ccc(C(C)(C)O)nc1)[C@H](CC(C)(C)C)CO2 [Compound 1089] | +++ (+++ is >60%) | < 1 | –
13 | Cc1cccc(C)c1-c1cc2nc(n1)NS(=O)(=O)c1cccc(c1)C(=O)N(CC1Cc3ccccc3C1)[C@H](CC(C)(C)C)CO2 [Compound 808] | +++ (+++ is >60%) | < 1 | –
14 | Cc1cccc(C)c1-c1cc2nc(n1)NS(=O)(=O)c1cccc(c1)C(=O)N(CCN(C)C)[C@H](CC(C)C)CO2 [Compound 412] | – | – | Ent. B Max Activity (Table 7): +++ (+++ is >60%); EC50 [2]: < 1 µM
15 | Cc1cccc(C)c1-c1cc2nc(n1)NS(=O)(=O)c1cc(nn1C)C(=O)N(Cc1cccnc1)[C@H](CC(C)(C)C)CO2 [Compound 933] | + (+ is <30%) | – | –
16 | Cc1cccc(C)c1-c1cc2nc(n1)NS(=O)(=O)c1cccc(c1)C(=O)N(Cc1ccc(C(C)(C)O)cn1)[C@H](CC(C)(C)C)CO2 [Compound 1082] | +++ (+++ is >60%) | < 1 | –
17 | Cc1cccc(C)c1-c1cc2nc(n1)NS(=O)(=O)c1cc(n(C)n1)C(=O)N(Cc1cnccn1)[C@H](CC(C)(C)C)CO2 [Compound 921] | +++ (+++ is >60%) | < 1 | –
18 | Cc1cccc(C)c1-c1cc2nc(n1)NS(=O)(=O)c1cccc(c1)C(=O)N(Cc1ccc(N)nc1)[C@H](CC(C)(C)C)CO2 [Compound 387] | – | – | Ent. B Max Activity (%) (Table 9): +++ (+++ is >600%); EC50 (Table 9): < 1 µM
19 | COC(=O)NCCCN1C(=O)c2cccc(c2)S(=O)(=O)Nc2nc(cc(-c3c(C)cccc3C)n2)OC[C@H]1CC(C)C [Compound 409] | – | – | Ent. B Max Activity (Table 7): +++ (+++ is >60%); EC50 [2]: < 1 µM
20 | COc1ncc(CN2C(=O)c3cccc(c3)S(=O)(=O)Nc3nc(cc(-c4c(C)cccc4C)n3)OC[C@H]2CC(C)(C)C)cn1 [Compound 1101] | +++ (+++ is >60%) | < 1 | –
21 | Cc1cnc(CN2C(=O)c3cc(nn3C)S(=O)(=O)Nc3nc(cc(-c4c(C)cccc4C)n3)OC[C@H]2CC(C)(C)C)nc1 [Compound 924] | – | – | Ent. B Max Activity (%) (Table 9): +++ (+++ is >600%); EC50 (Table 9): < 1 µM
22 | Cc1cccc(C)c1-c1cc2nc(n1)NS(=O)(=O)c1cccc(c1)C(=O)N(Cc1ccc3c(c1)oc(=O)n3C)[C@H](CC(C)(C)C)CO2 [Compound 802] | – | – | Ent. B Max Activity (%) (Table 9): +++ (+++ is >600%); EC50 (Table 9): < 1 µM
23 | CC(=O)NCCCN1C(=O)c2cccc(c2)S(=O)(=O)Nc2nc(cc(-c3c(C)cccc3C)n2)OC[C@H]1CC(C)C [Compound 404] | +++ (+++ is >60%) | < 1 | –
24 | Cc1cccc(C)c1-c1cc2nc(n1)NS(=O)(=O)c1cccc(c1)C(=O)N(Cc1ccc(C(C)(C)O)cc1)[C@H](CCC(C)(C)O)CO2 [Compound 661] | ++ (++ is 30-60%) | 1 to 3 | –
25 | Cc1cccc(C)c1-c1cc2nc(n1)NS(=O)(=O)c1cc(nn1C)C(=O)N(Cc1cccnn1)[C@H](CC(C)(C)C)CO2 [Compound 931] | + (+ is <30%) | 1 to 3 | –
